Experimental data taken from patent US20250032524A1, “BROAD SPECTRUM AMINOGLYCOSIDES AND USES THEREOF” (REVAGENIX, INC., priority 2022, published 2025).

Columns and labels:
Test in all cases: Antibacterial surveillance of clinical isolates (MIC50/90)
Type in all cases: cell-based
[1] = test system: AG-resistant Enterobacterales
Outline: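 CLSI broth microdilution MIC in cation-adjusted Mueller-Hinton broth, final inoculum 5×10^5 CFU/mL, 35° C ambient air, 18-24 h; MIC = lowest concentration preventing visible growth (OD600 <0.05). SENTRY US/European clinical isolates, including genetically defined aminoglycoside-resistant sets; MIC50/MIC90 inhibit ≥50%/≥90% of isolates.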

[2] = test system: Methicillin-sensitive S. aureus (MSSA); conditions: Staphylococcus aureus, MSSA, 20 isolates; for MIC50: read-out: MIC50; for MIC90: read-out: MIC90
Outline: (§1)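 Isolates were suspended to 5×10^5 CFU/mL final in cation-adjusted Mueller-Hinton broth containing 2-fold serial compound dilutions, then incubated 18-24 hours at 35° C in ambient air. The MIC was read as no visible growth (OD 600 nm<0.05), and MIC50/MIC90 were derived across each isolate set.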

[3] = test system: Methicillin-resistant S. aureus (MRSA); conditions: Staphylococcus aureus, MRSA, 30 isolates; for MIC50: read-out: MIC50; for MIC90: read-out: MIC90
Outline: as §1

[4] = test system: AG-resistant P. aeruginosa; conditions: Pseudomonas aeruginosa, 50 isolates with defined aminoglycoside resistance; for MIC50: read-out: MIC50; for MIC90: read-out: MIC90
Outline: as §1

NC[C@@H]1CC[C@@H](N)[C@@H](O[C@@H]2[C@@H](N)[C@H](O)[C@@H](NC(=O)[C@@H](O)[C@H](F)CN)[C@H](O)[C@H]2O[C@@H]2O[C@H](CO)[C@@H](O[C@H]3O[C@@H](CN)[C@@H](O)[C@H](O)[C@H]3N)[C@H]2O)O1 [Compound 1, (2R,3R)-4-amino-N-((1R,2S,3S,4R,5R,6S)-3-amino-5-(((2S,3R,4S,5R)-4-(((2R,3R,4R,5S,6S)-3-amino-6-(aminomethyl)-4,5-dihydroxytetrahydro-2H-pyran-2-yl)oxy)-3-hydroxy-5-(hydroxymethyl)tetrahydrofuran-2-yl)oxy)-4-(((2R,3R,6S)-3-amino-6-(aminomethyl)tetrahydro-2H-pyran-2-yl)oxy)-2,6-dihydroxycyclohexyl)-3-fluoro-2-hydroxybutanamide]
< 16 µg/mL: MIC50 [1] | MIC90 [1] | MIC50 [2] | MIC90 [2] | MIC50 [3] | MIC90 [3] | MIC50 [4] | MIC90 [4]

NCC[C@H](O)C(=O)N[C@@H]1[C@@H](O)[C@H](N)[C@@H](O[C@H]2O[C@H](CN)CC[C@H]2N)[C@H](O[C@@H]2O[C@H](CO)[C@@H](O[C@H]3O[C@@H](CN)[C@@H](O)[C@H](O)[C@H]3N)[C@H]2O)[C@H]1O [Compound 2, (S)-4-amino-N-((1R,2S,3S,4R,5R,6S)-3-amino-5-(((2S,3R,4S,5R)-4-(((2R,3R,4R,5S,6S)-3-amino-6-(aminomethyl)-4,5-dihydroxytetrahydro-2H-pyran-2-yl)oxy)-3-hydroxy-5-(hydroxymethyl)tetrahydrofuran-2-yl)oxy)-4-(((2R,3R,6S)-3-amino-6-(aminomethyl)tetrahydro-2H-pyran-2-yl)oxy)-2,6-dihydroxycyclohexyl)-2-hydroxybutanamide]
< 16 µg/mL: MIC50 [1] | MIC90 [1] | MIC50 [2] | MIC90 [2] | MIC50 [3] | MIC90 [3] | MIC50 [4] | MIC90 [4]

C[C@H](N)[C@@H]1CC[C@@H](N)[C@@H](O[C@@H]2[C@@H](N)[C@H](O)[C@@H](NC(=O)[C@@H](O)[C@H](F)CN)[C@H](O)[C@H]2O[C@@H]2O[C@H](CO)[C@@H](O[C@H]3O[C@@H](CN)[C@@H](O)[C@H](O)[C@H]3N)[C@H]2O)O1 [Compound 3, (2R,3R)-4-amino-N-((1R,2S,3S,4R,5R,6S)-3-amino-4-(((2R,3R,6S)-3-amino-6-((S)-1-aminoethyl)tetrahydro-2H-pyran-2-yl)oxy)-5-(((2S,3R,4S,5R)-4-(((2R,3R,4R,5S,6S)-3-amino-6-(aminomethyl)-4,5-dihydroxytetrahydro-2H-pyran-2-yl)oxy)-3-hydroxy-5-(hydroxymethyl)tetrahydrofuran-2-yl)oxy)-2,6-dihydroxycyclohexyl)-3-fluoro-2-hydroxybutanamide]
< 16 µg/mL: MIC50 [1] | MIC90 [1] | MIC50 [2] | MIC90 [2] | MIC50 [3] | MIC90 [3] | MIC50 [4] | MIC90 [4]
